Drawing on patent US9221838B2, “Inhibitors of AKT activity” (ALMAC DISCOVERY LIMITED, priority 2009, dated 2015), this text covers IC50 for 10 molecules.

Common to all, as to format: biochemical
In one assay the target is T1, AKT1 (Homo sapiens, UniProt P31749).
T1 construct: purchased SignalChem
Nature of the assay: AKT Kinase Assay (IMAP fluorescent polarisation) vs AKT1. Put shortly: (§1)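 Phosphorylation of FAM-Crosstide detected by IMAP binding and fluorescence polarisation (485/528 nm), with IC50 fitted from % inhibition versus vehicle. Compound was incubated 45 min with enzyme, then reacted 1 h at room temperature with ATP and peptide in Tris/MgCl2/DTT buffer. Dose response had fourteen half-log points.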

A further assay has as its target T2, AKT2 (Homo sapiens, UniProt P31751).
T2 construct: purchased SignalChem
Nature of the assay: AKT Kinase Assay (IMAP fluorescent polarisation) vs AKT2. The method, boiled down: as §1

Another assay addresses T3, AKT3 (Homo sapiens, UniProt Q9Y243).
T3 construct: purchased SignalChem
The assay can be described thus: AKT Kinase Assay (IMAP fluorescent polarisation) vs AKT3. The method, boiled down:
as §1

T2 sequence (P31751 whole entry): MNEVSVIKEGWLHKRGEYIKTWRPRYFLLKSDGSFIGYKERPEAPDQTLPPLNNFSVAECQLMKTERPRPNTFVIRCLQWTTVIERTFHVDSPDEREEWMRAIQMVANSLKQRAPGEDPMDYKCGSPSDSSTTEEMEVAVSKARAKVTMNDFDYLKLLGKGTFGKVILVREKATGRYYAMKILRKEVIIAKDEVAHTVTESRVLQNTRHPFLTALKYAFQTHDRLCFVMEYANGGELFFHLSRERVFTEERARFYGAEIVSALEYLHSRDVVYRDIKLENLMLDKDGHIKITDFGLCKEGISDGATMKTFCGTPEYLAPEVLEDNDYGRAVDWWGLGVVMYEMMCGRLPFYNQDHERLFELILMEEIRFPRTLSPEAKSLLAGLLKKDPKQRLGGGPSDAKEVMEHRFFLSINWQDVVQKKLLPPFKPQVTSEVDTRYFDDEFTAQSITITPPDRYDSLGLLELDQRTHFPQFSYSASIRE
T1 sequence (P31749 whole entry): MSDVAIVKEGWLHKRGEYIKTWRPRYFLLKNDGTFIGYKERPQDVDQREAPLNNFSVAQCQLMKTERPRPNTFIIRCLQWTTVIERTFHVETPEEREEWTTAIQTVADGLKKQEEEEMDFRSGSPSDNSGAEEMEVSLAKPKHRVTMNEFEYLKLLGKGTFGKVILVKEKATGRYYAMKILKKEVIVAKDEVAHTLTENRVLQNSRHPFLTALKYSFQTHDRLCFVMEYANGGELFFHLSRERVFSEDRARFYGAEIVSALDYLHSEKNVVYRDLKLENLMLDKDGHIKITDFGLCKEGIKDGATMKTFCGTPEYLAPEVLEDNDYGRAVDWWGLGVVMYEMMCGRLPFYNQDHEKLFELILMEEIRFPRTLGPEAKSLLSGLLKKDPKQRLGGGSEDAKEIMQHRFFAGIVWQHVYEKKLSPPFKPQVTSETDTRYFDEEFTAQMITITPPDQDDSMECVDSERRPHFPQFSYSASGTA
T3 sequence (Q9Y243 whole entry): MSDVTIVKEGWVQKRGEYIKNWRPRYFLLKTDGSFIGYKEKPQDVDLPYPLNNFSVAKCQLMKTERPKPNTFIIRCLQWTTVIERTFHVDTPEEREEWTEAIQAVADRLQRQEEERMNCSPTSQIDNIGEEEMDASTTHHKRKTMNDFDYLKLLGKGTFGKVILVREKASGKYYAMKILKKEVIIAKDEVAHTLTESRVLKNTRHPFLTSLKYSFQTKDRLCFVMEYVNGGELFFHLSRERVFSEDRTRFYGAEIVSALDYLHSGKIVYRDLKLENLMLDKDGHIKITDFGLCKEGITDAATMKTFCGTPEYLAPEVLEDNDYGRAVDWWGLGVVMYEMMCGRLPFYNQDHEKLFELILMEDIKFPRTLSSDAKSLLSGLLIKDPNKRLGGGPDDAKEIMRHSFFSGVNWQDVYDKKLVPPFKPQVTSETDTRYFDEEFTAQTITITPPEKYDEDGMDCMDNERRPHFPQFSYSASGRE

Take `NC(=O)CN1CCOc2nc(-c3ccc(C4(N)CCC4)cc3)c(-c3ccccc3)cc21` [Example 44, 2-(6-(4-(1-aminocyclobutyl)phenyl)-7-phenyl-2,3-dihydro-1H-pyrido[2,3-b][1,4]oxazin-1-yl)acetamide]: the IC50 – broadly, the midpoint of a concentration-inhibition curve – is 1000 to 10000 nM on AKT1, 1000 to 10000 nM at AKT2 and above 10000 nM at AKT3.
Consider `NC1(c2ccc(-c3nc4c(cc3-c3ccccc3)NC(=O)NC4)cc2)CCC1` [Example 87, 6-(4-(1-aminocyclobutyl)phenyl)-7-phenyl-3,4-dihydropyrido[3,2-d]pyrimidin-2(1H)-one], for which the IC50 is 100 to 1000 nM at AKT1, 1000 to 10000 nM at AKT2 and above 10000 nM at AKT3.
On the same counts, the results for `NC1(c2ccc(-c3nc4c(cc3-c3ccccc3)N(CCF)C(=O)N(CCF)C4)cc2)CCC1` [Example 109, 6-(4-(1-aminocyclobutyl)phenyl)-1,3-bis(2-fluoroethyl)-7-phenyl-3,4-dihydropyrido[3,2-d]pyrimidin-2(1H)-one] are at most 100 nM, at most 100 nM and 100 to 1000 nM.
`NC1(c2ccc(-c3nc4c(cc3-c3ccccc3)N(CCF)C(=O)CO4)cc2)CCC1` [Example 86, 6-(4-(1-aminocyclobutyl)phenyl)-1-(2-fluoroethyl)-7-phenyl-1H-pyrido[2,3-b][1,4]oxazin-2(3H)-one]: the IC50 is 100 to 1000 nM on AKT1, at most 100 nM at AKT2 and 1000 to 10000 nM on AKT3.
Consider `NC(=O)CN1C(=O)COc2nc(-c3ccc(C4(N)CCC4)cc3)c(-c3ccccc3)cc21` [Example 35, 2-(6-(4-(1-aminocyclobutyl)phenyl)-2-oxo-7-phenyl-2,3-dihydro-1H-pyrido[2,3-b][1,4]oxazin-1-yl)acetamide], for which the IC50 at AKT1 was 1000 to 10000 nM; at AKT2, 100 to 1000 nM; on AKT3, above 10000 nM.
Turning to `CCc1nnc2n1-c1cc(-c3ccccc3)c(-c3ccc(C4(N)CCC4)cc3)nc1OC2` [Example 47, 1-(4-(1-ethyl-8-phenyl-4H-pyrido[2,3-b][1,2,4]triazolo[4,3-d][1,4]oxazin-7-yl)phenyl)cyclobutanamine], the IC50 on AKT1 is at most 100 nM; on AKT2 it was 100 to 1000 nM; on AKT3, 1000 to 10000 nM.
As to `CSc1[nH]nc2c1CCc1nc(-c3ccc(C4(N)CCC4)cc3)c(-c3ccccc3)cc1-2` [Example 9, 1-(4-(3-(methylthio)-8-phenyl-4,5-dihydro-2H-pyrazolo[3,4-f]quinolin-7-yl)phenyl)cyclobutanamine], the IC50 is 100 to 1000 nM on AKT1, 1000 to 10000 nM at AKT2 and above 10000 nM at AKT3.
`NC1(c2ccc(-c3nc4c(cc3-c3ccccc3)N(CCF)C(=O)CCN4)cc2)CCC1` [Example 117, 7-(4-(1-aminocyclobutyl)phenyl)-1-(2-fluoroethyl)-8-phenyl-4,5-dihydro-1H-pyrido[2,3-b][1,4]diazepin-2(3H)-one]: the IC50 on AKT1, at AKT2 and on AKT3 was 1000 to 10000 nM each time.
As for `Cn1nc2n(c1=O)-c1cc(-c3ccccc3)c(-c3ccc(C4(N)CCC4)cc3)nc1OC2` [Example 99, 7-(4-(1-aminocyclobutyl)phenyl)-2-methyl-8-phenyl-2,4-dihydro-1H-pyrido[2,3-b][1,2,4]triazolo[4,3-d][1,4]oxazin-1-one], the half-maximal inhibitory concentration (IC50) fell in the range of 100 to 1000 nM on AKT1, 100 to 1000 nM at AKT2 and 1000 to 10000 nM at AKT3.
As to `CCN1C(=O)COc2nc(-c3ccc([C@]4(N)C[C@@H](O)C4)cc3)c(-c3ccccc3)cc21` [Example 139, 6-(4-((1s,3s)-1-amino-3-hydroxycyclobutyl)phenyl)-1-ethyl-7-phenyl-1H-pyrido[2,3-b][1,4]oxazin-2(3H)-one], the IC50 on AKT1 fell in the range of 100 to 1000 nM; on AKT2, 100 to 1000 nM; on AKT3, 1000 to 10000 nM.
